Results on 15 molecules are retold here after US5326867A, “Pradimic acids, amides, and pradimicin derivatives” (Bristol-Myers Squibb Company, priority 1992, dated 1994).

As usually defined, the MIC is the least concentration at which growth counts as inhibited. A lower MIC goes with a more susceptible organism.

Assay type in all cases: cell-based
One assay deals with Aspergillus fumigatus. The experiment in a line: In vitro antifungal activity, MIC by serial agar dilution method. The conditions noted are these: Sabouraud dextrose agar, 10^6 cells/ml, 40 hours at 28° C. How it is done:
(§1) Antifungal activities of representative compounds of the present invention were evaluation in vitro. The minimum inhibitory concentrations (MICs) against various fungi were determined by serial agar dilution method using Sabouraud dextrose agar. Thus, approximately 0.003 ml of fungal suspension containing 10^6 cells/ml was applied to the surface of agar plates containing the test antibiotics.
A general note: In agar dilution, organisms are placed on agar that contains the substance at set levels.

For the next assay, the system named is Candida albicans. The description is as above. To be noted: Sabouraud dextrose agar, 10^6 cells/ml, 40 hours at 28° C. Here is the method: as §1
Another assay has as its system Cryptococcus neoformans. The assay is described as above. To be noted: Sabouraud dextrose agar, 10^6 cells/ml, 40 hours at 28° C. How it is done: as §1
Assay [1] has as its system Trichophyton mentagrophytes. Described as above. To be noted: Sabouraud dextrose agar, 10^6 cells/ml, 40 hours at 28° C. How it is done:
as §1

A further assay concerns fungi. Nature of the assay: Antifungal activity of synthesized pradimicin A compared with naturally occurring pradimicin A. To be noted: semisynthetic product of Example 12 vs naturally occurring pradimicin A.

Converted amounts (≈) assume the structure as drawn.

Take `CN[C@@H]1[C@H](O[C@@H]2OC[C@@H](O)[C@H](O)[C@H]2O)[C@@H](O)[C@H](O[C@H]2c3cc(C)c(C(=O)N[C@H](Cc4ccc(O)c(O)c4)C(=O)O)c(O)c3-c3c(cc4c(c3O)C(=O)c3cc(OC)cc(O)c3C4=O)[C@@H]2O)O[C@@H]1C` [Example 13, 15-Desalanyl-15-[D-(3,4-dihydroxyphenyl)alanyl] pradimicin A]: the minimum inhibitory concentration (MIC) was more than 50 µg/mL against Aspergillus fumigatus, more than 50 µg/mL against Candida albicans, 25 µg/mL (≈ 26.3 µM) against Cryptococcus neoformans and 50 µg/mL (≈ 52.7 µM) in assay [1].
As to `CN[C@@H]1[C@H](O[C@@H]2OC[C@@H](O)[C@H](O)[C@H]2O)[C@@H](O)[C@H](O[C@H]2c3cc(C)c(C(=O)N[C@@H](CO)C(=O)O)c(O)c3-c3c(cc4c(c3O)C(=O)c3cc(OC)cc(O)c3C4=O)[C@@H]2O)O[C@@H]1C` [Example 14], the MIC was more than 100 µg/mL in the assay on Aspergillus fumigatus, 12.5 µg/mL (≈ 14.6 µM) with Candida albicans, 12.5 µg/mL (≈ 14.6 µM) in the assay on Cryptococcus neoformans and more than 100 µg/mL in assay [1].
With `CN[C@@H]1[C@H](O[C@@H]2OC[C@@H](O)[C@H](O)[C@H]2O)[C@@H](O)[C@H](O[C@H]2c3cc(C)c(C(=O)N[C@H](CN)C(=O)O)c(O)c3-c3c(cc4c(c3O)C(=O)c3cc(OC)cc(O)c3C4=O)[C@@H]2O)O[C@@H]1C` [Example 15], the MIC in the assay with Aspergillus fumigatus is 6.3 µg/mL (≈ 7.36 µM); against Candida albicans, 25 µg/mL (≈ 29.2 µM); against Cryptococcus neoformans, 6.3 µg/mL (≈ 7.36 µM); in assay [1] it was 6.3 µg/mL (≈ 7.36 µM).
Turning to `CN[C@@H]1[C@H](O[C@@H]2OC[C@@H](O)[C@H](O)[C@H]2O)[C@@H](O)[C@H](O[C@H]2c3cc(C)c(C(=O)N[C@H](CC(=O)O)C(=O)O)c(O)c3-c3c(cc4c(c3O)C(=O)c3cc(OC)cc(O)c3C4=O)[C@@H]2O)O[C@@H]1C` [Example 16], the MIC against Aspergillus fumigatus came out at 50 µg/mL (≈ 56.5 µM); with Candida albicans, 12.5 µg/mL (≈ 14.1 µM); against Cryptococcus neoformans it was 6.3 µg/mL (≈ 7.12 µM); in assay [1], 12.5 µg/mL (≈ 14.1 µM).
Take `CN[C@@H]1[C@H](O[C@@H]2OC[C@@H](O)[C@H](O)[C@H]2O)[C@@H](O)[C@H](O[C@H]2c3cc(C)c(C(=O)NC(C(=O)O)C(F)(F)F)c(O)c3-c3c(cc4c(c3O)C(=O)c3cc(OC)cc(O)c3C4=O)[C@@H]2O)O[C@@H]1C` (stereo partly drawn) [Example 17]: the minimum inhibitory concentration (MIC) with Aspergillus fumigatus was 50 µg/mL (≈ 55.9 µM); against Candida albicans it was more than 100 µg/mL; with Cryptococcus neoformans it was 3.1 µg/mL (≈ 3.46 µM); in assay [1], more than 100 µg/mL.
On to `CN[C@@H]1[C@H](O[C@@H]2OC[C@@H](O)[C@H](O)[C@H]2O)[C@@H](O)[C@H](O[C@H]2c3cc(C)c(C(=O)N[C@H](Cc4ccccc4)C(=O)O)c(O)c3-c3c(cc4c(c3O)C(=O)c3cc(OC)cc(O)c3C4=O)[C@@H]2O)O[C@@H]1C` [Example 18], for which the MIC is 6.3 µg/mL (≈ 6.87 µM) in the assay on Aspergillus fumigatus, more than 100 µg/mL against Candida albicans, 1.6 µg/mL (≈ 1.75 µM) with Cryptococcus neoformans and 12.5 µg/mL (≈ 13.6 µM) in assay [1].
Turning to `CN[C@@H]1[C@H](O[C@@H]2OC[C@@H](O)[C@H](O)[C@H]2O)[C@@H](O)[C@H](O[C@H]2c3cc(C)c(C(=O)N[C@H](Cc4cnc[nH]4)C(=O)O)c(O)c3-c3c(cc4c(c3O)C(=O)c3cc(OC)cc(O)c3C4=O)[C@@H]2O)O[C@@H]1C` [Example 19], the MIC in the assay with Aspergillus fumigatus is 50 µg/mL (≈ 55.1 µM); in the assay on Candida albicans it was more than 50 µg/mL; in the assay with Cryptococcus neoformans, 12.5 µg/mL (≈ 13.8 µM); in assay [1], 12.5 µg/mL (≈ 13.8 µM).
Turning to `CN[C@@H]1[C@H](O[C@@H]2OC[C@@H](O)[C@H](O)[C@H]2O)[C@@H](O)[C@H](O[C@H]2c3cc(C)c(C(=O)NCc4nnn[nH]4)c(O)c3-c3c(cc4c(c3O)C(=O)c3cc(OC)cc(O)c3C4=O)[C@@H]2O)O[C@@H]1C` [Example 20], the MIC with Aspergillus fumigatus was determined as 3.1 µg/mL (≈ 3.64 µM); in the assay on Candida albicans, 6.3 µg/mL (≈ 7.4 µM); in the assay on Cryptococcus neoformans it was 3.1 µg/mL (≈ 3.64 µM); in assay [1], 3.1 µg/mL (≈ 3.64 µM).
As to `CN[C@@H]1[C@H](O[C@@H]2OC[C@@H](O)[C@H](O)[C@H]2O)[C@@H](O)[C@H](O[C@H]2c3cc(C)c(C(=O)N[C@H](CCCCN)C(=O)O)c(O)c3-c3c(cc4c(c3O)C(=O)c3cc(OC)cc(O)c3C4=O)[C@@H]2O)O[C@@H]1C` [Example 21], the MIC with Aspergillus fumigatus stood at 6.3 µg/mL (≈ 7.02 µM); in the assay with Candida albicans, 25 µg/mL (≈ 27.8 µM); against Cryptococcus neoformans, 6.3 µg/mL (≈ 7.02 µM); in assay [1], 6.3 µg/mL (≈ 7.02 µM).
For the molecule `CCNC(=O)SC[C@@H](NC(=O)c1c(C)cc2c(c1O)-c1c(cc3c(c1O)C(=O)c1cc(OC)cc(O)c1C3=O)[C@H](O)[C@H]2O[C@@H]1O[C@H](C)[C@H](NC)[C@H](O[C@@H]2OC[C@@H](O)[C@H](O)[C@H]2O)[C@H]1O)C(=O)O` [Example 23], the MIC worked out at 3.1 µg/mL (≈ 3.28 µM) in the assay with Aspergillus fumigatus, 25 µg/mL (≈ 26.5 µM) against Candida albicans, 3.1 µg/mL (≈ 3.28 µM) against Cryptococcus neoformans and 12.5 µg/mL (≈ 13.2 µM) in assay [1].
As to `COc1cc(O)c2c(c1)C(=O)c1c(cc3c(c1O)-c1c(cc(C)c(C(=O)N[C@@H](C(=O)O)[C@H](C)O)c1O)[C@H](O[C@@H]1O[C@H](C)[C@H](O)[C@H](O[C@@H]4OC[C@@H](O)[C@H](O)[C@H]4O)[C@H]1O)[C@H]3O)C2=O` [Example 27, 15-Desalanyl-15-(D-threonyl) -4'-desmethylamino-4'-hydroxypradimicin A], the MIC in the assay on Aspergillus fumigatus amounted to 12.5 µg/mL (≈ 14.6 µM); with Candida albicans, 12.5 µg/mL (≈ 14.6 µM); against Cryptococcus neoformans it was 6.3 µg/mL (≈ 7.34 µM); in assay [1], 12.5 µg/mL (≈ 14.6 µM).
In the case of `COc1cc(O)c2c(c1)C(=O)c1c(cc3c(c1O)-c1c(cc(C)c(C(=O)N[C@H](CSSC[C@@H](N)C(=O)O)C(=O)O)c1O)[C@H](O[C@@H]1O[C@H](C)[C@H](O)[C@H](O[C@@H]4OC[C@@H](O)[C@H](O)[C@H]4O)[C@H]1O)[C@H]3O)C2=O` [Example 29], the MIC came out at 6.3 µg/mL (≈ 6.44 µM) with Aspergillus fumigatus, 6.3 µg/mL (≈ 6.44 µM) in the assay on Candida albicans, 3.1 µg/mL (≈ 3.17 µM) against Cryptococcus neoformans and 12.5 µg/mL (≈ 12.8 µM) in assay [1].
Turning to `COc1cc(O)c2c(c1)C(=O)c1c(cc3c(c1O)-c1c(cc(C)c(C(=O)N[C@@H](CO)C(=O)O)c1O)[C@H](O[C@@H]1O[C@H](C)[C@H](O)[C@H](O[C@@H]4OC[C@@H](O)[C@H](O)[C@H]4O)[C@H]1O)[C@H]3O)C2=O` [Example 30], the MIC in the assay on Aspergillus fumigatus was more than 100 µg/mL; in the assay on Candida albicans, 12.5 µg/mL (≈ 14.8 µM); with Cryptococcus neoformans, 50 µg/mL (≈ 59.3 µM); in assay [1] it was more than 100 µg/mL.
As to `COc1cc(O)c2c(c1)C(=O)c1c(cc3c(c1O)-c1c(cc(C)c(C(=O)N[C@H](C)C(=O)O)c1O)[C@H](O[C@@H]1O[C@H](C)[C@H](O)[C@H](O[C@@H]4OC[C@@H](O)[C@H](O)[C@H]4O)[C@H]1O)[C@H]3O)C2=O` [Example 31], the MIC turned out to be 3.1 µg/mL (≈ 3.75 µM) with Aspergillus fumigatus, 6.3 µg/mL (≈ 7.61 µM) in the assay with Candida albicans, 3.1 µg/mL (≈ 3.75 µM) in the assay with Cryptococcus neoformans and 3.1 µg/mL (≈ 3.75 µM) in assay [1].
As to `CN[C@@H]1[C@H](O[C@@H]2OC[C@@H](O)[C@H](O)[C@H]2O)[C@@H](O)[C@H](O[C@H]2c3cc(C)c(C(=O)N[C@H](C)C(=O)O)c(O)c3-c3c(cc4c(c3O)C(=O)c3cc(OC)cc(O)c3C4=O)[C@@H]2O)O[C@@H]1C` [pradimicin A], the antifungal activity entry in the assay with fungi was “identical to naturally occurring pradimicin A in spectroscopic data (NMR, IR, UV), HPLC and antifungal activity”.
